Experimental data taken from patent publication US20260009085A1, “METHODS AND COMPOSITIONS FOR THE DIAGNOSIS AND TREATMENT OF CANCER” (Chengdu Anticancer Bioscience, Ltd., priority 2023, published 2026).

Test system: NCI-H23 cells
Experiment: Immunofluorescent analysis of AURKB mis-localization (6 hours) and polyploidy (72 hours)
Format: cell-based, human
Settings: 6 hours or 72 hours
Protocol: The proportion of cells with AURKB mis-localization was measured to assess the function of MKLP2 (FIG. 3C). Immunofluorescent analysis of localization of kinetochore proteins AURKB and CREST was determined. Scale bar=10 μm. FIG. 3D is an immunoblot depicting the results of an experiment in which NCI-H23 cells were transiently transfected with MKLP2 siRNA. MKLP2 knockdown efficiency was assayed by immunoblot blot analysis 72 hours after transfection. FIG. 3E are graphs depicting the proportion of cells with AURKB mis-localization after treatment with MKLP2 siRNA after 6 hours of exposure and the proportion of polyploid cells after 72 hours.
Compounds were considered positive for the induction of polyploidy when the percentage of polyploid cells in the interphase population, was ≥5% (with deduction of basal level of polyploid cells) at 72 hours after initiation of treatment (FIG. 3A right panel, FIG. 3B right panel, and FIG. 3E right panel). Polyploid cells were defined as those with multinucleated nuclei, visible upon DAPI staining. The basal level of spontaneous polyploid cells with the screening cell line was less than 1%.
Immunofluorescent (IF) analysis was used to assess enzymatic activity (FIG. 3A left panel, FIG. 3B left panel, and FIG. 3E left panel) and localization of mitotic regulators. […]

For CNC(=O)c1cc(OC)cc(Oc2ncccc2-c2ccnc(C)c2)c1 [LG157], the “mitotic defects (AURKB mis-localization, polyploidy)” value was “elicit mitotic defects similar to those seen in cells treated with a known mitotic disruptor, paprotrain”.
